Data on five compounds can be found in paper doi:10.1101/2020.08.03.235622v1 (bioRxiv, 2020).

Like-named read-outs stand apart in the source and are kept apart here.

One series concerns flagella (fliC). Particulars: cited from earlier work.
Series [1] deals with P. aeruginosa T3SS gene transcription (exoT, exoS, dsbA). As to the kind of experiment: qPCR of T3SS genes in P. aeruginosa. In kind it is cell-based, Pseudomonas aeruginosa. The following applies: 60 μM cyclic peptomer; for transcription of exoT: PA103, low calcium, 50 μM MBX1641, 3 hrs.
Series [2] has as its system P. aeruginosa PAO1 T3SS (ExoS, ExsE). The format is cell-based, Pseudomonas aeruginosa.
The next series has as its system P. aeruginosa PA103 T3SS. In kind it is cell-based, Pseudomonas aeruginosa.
Another series has as its system HeLa cells. As to the kind of experiment: Host cell viability by LDH release. In kind it is cell-based, human. Particulars: 9 μM, infected HeLa cells. Background: Release of lactate dehydrogenase indicates damage to the cell membrane.
For another series, the system named is Salmonella SPI-1 T3SS. In kind it is cell-based, Salmonella enterica Typhimurium.

With `O=[N+]([O-])c1cc(CN2CCN(c3ccc(F)cc3)CC2)c(O)c2ncccc12` [INP1855], the “lowest known inhibitory concentration (~), fliC/fla” value with flagella (fliC) was approximately 30 µM.

Turning to `O=[N+]([O-])c1cc(CN2CCN(c3ccccc3)CC2)c(O)c2ncccc12` [INP1750], the “lowest known inhibitory concentration (~), fliC/fla” value in the series on flagella (fliC) is approximately 80 µM.

Regarding `CC(Oc1ccc(Cl)cc1Cl)C(=O)NCc1ccc2c(c1)OCO2` (centres unmarked) [MBX1641, reference compound], the “transcription of exoT” value in series [1] is “did”.

Turning to “Propylamine, Benzylamine, D-Leu, L-Ile, L-Leu, and D-Phe (PBDLLD) (head to tail) [1EpDN]”, the “amount of secreted ExoS” value in series [2] is given as “significantly reduced”. The IC50 with P. aeruginosa PA103 T3SS (read-out: IC50, inhibition of T3SS effector (ExoU) secretion in P. aeruginosa) is approximately 8 µM. Moreover, in series [1], the “transcription of exoT” value is on record as “did not inhibit transcription of exoT”.

Regarding “Propylamine, Benzylamine, L-Leu, L-Ile, D-Leu, and D-Phe (PBLLDD) (head to tail) [4EpDN]”, in the series on HeLa cells, the “host cell viability as assayed by LDH release” value was “without affecting host cell viability”. Also, in series [2], the “amount of secreted ExoS” value was “significantly reduced” and the “secretion of the regulator ExsE” value is given as “did not significantly impact secretion”. In addition, the “T3SS inhibitory activity (ExoU secretion), in words” value in the series with P. aeruginosa PA103 T3SS is “improved activity”. The IC50 with P. aeruginosa PA103 T3SS (read-out: IC50, ExoU secretion (PA, Psc/Ysc)) came out at 3.9 µM. Also, the “expression of the effectors exoS and exoT” value in series [1] (P. aeruginosa PAO1 lacking all known efflux pumps, 3 hrs) is “did not affect expression”. Moreover, in the series with Salmonella SPI-1 T3SS, the “concentration at which inhibition of SipA secretion was observed” value is ~ 1.4 μM and the “concentration at which inhibition of SipC secretion was observed” value was ~ 1 μM.
